Reference: patent publication US9895337B2, “Compositions containing monoacetyldiacylglycerol compound as an active ingredient for preventing or treating rheumatoid arthritis” (ENZYCHEM LIFESCIENCES CORPORATION, priority 2013, dated 2018)

Legend:
STAT-1 = experiment: Inhibition of PMA-induced STAT-1 phosphorylation in NK-92 cells (western blot); type: cell-based, Human; conditions: PMA-induced (FIG. 2B)
Protocol: Human cell lines NK-92, U937, A549 and HepG2 (American Type Culture Collection, ATCC, Rockville, Md.) were cultured at 37° C. under 5% CO2 humid conditions. NK-92 cells were cultured in alpha-MEM media (Life Technologies, Karlsruhe, Germany) containing 10% Fetal Calf Serum (FCS, HyClone, Logan, Utah), 2 mM […], 100 μg/ml penicillin, 100 μg/ml streptomycin (Life Technologies). U937, A549 and HepG2 cells were cultured in RPMI media containing 10% Fetal Calf Serum.
Cells treated in EC-18 and PMA (Phobol 12-myristate 13-acetate) were lysed with cold SDS lysis buffer [(50 mM HEPES, 150 mM NaCl, 0.2 mM EDTA, 0.5% NP-40, 0.1% SDS, 1 mM Na3VO4, 10 mM NaF, and complete Protein Inhibitor Cocktail (Roche)] for 30 minutes on ice. After cell lysis, the aqueous solution was separated from the insoluble precipitate by centrifuging the cell lysates for 30 minutes at 13,000 rpm in a high-speed centrifuge. After protein quantification, the aqueous solution was separated in 10 to 12% SDS-PAGE by electrophoresis. Proteins separated in the gel were transferred into PVDF membrane (Millipore, Billerica, Mass., USA) at 100V for 2 hours. […]

[1] = tested on: collagen-induced arthritis in male DBA/1J mouse; experiment: Arthritis animal model induced by bovine type II collagen; type: in vivo; conditions: for histopathological arthritis score of knee joint: knee joint of both hind legs, vs negative control (FIG. 6); for histopathological arthritis score of knee joint / concentration of IL-6 in serum: EC-18 125, 500, 2,000 mg/kg oral, Remicade 20 mg/kg i.p., methotrexate 2.5 mg/kg oral; for concentration of IL-6 in serum: serum at day of tissue excision, once a day for five weeks, vs negative control (FIG. 4)
Protocol: For arthritis animal model experiment, arthritis was induced in male DBA/1J mouse by administering bovine type II collagen to the mouse. Efficacy of EC-18 for treating (or improving) arthritis was evaluated by repeatedly administering EC-18 to the mouse orally. For comparison, Remicade (positive control 1) was administered intraperitoneally and methotrexate (positive control 2) was administered orally. The experiment included seven groups: normal group (G1), negative control (G2), 125 mg/kg, 500 mg/kg and 2,000 mg/kg of EC-18 (EC-18 treatment groups, G3, G4, G5), 20 mg/kg of Remicade (Positive control 1, G6) and 2.5 mg/kg of Methotrexate (Positive control 2, G7). Each group consists of 10 mice. Olive oil was administered to normal group (G1) and negative control group (G2) as an excipient. In all groups, administration was made once a day for five weeks (a total of 35 administrations). Remicade (G6) was administered intraperitoneally, whereas EC-18, methotrexate and olive oil were administered orally in force. For all groups except normal Group (G1), arthritis was induced by immunizing animals twice with bovine type II collagen and complete Freund's adjuvant or incomplete Freund's adjuvant emulsion. During the observation period, common arthritis symptoms were observed once a day, weigh measured once a week, arthritic score evaluation made with the naked eye twice a week, foot thickness measured twice a week.

Row | Compound | STAT-1 phosphorylation (STAT-1) | histopathological arthritis score of knee joint [1] | concentration of IL-6 in serum [1] | crushing of cartilage and increase of Pannus (stained arthritic tissue) ([1]; EC-18 500 mg/kg oral (G4), Remicade 20 mg/kg i.p. (G6), vs negative control (FIGS. 7 and 8))
1 | CCCCC/C=C\C/C=C\CCCCCCCC(=O)OC(COC(C)=O)COC(=O)CCCCCCCCCCCCCCC (stereo not drawn) [EC-18, 1-palmitoyl-2-linoleoyl-3-acetylglycerol] | does not inhibit |  |  | 
2 | CN(Cc1cnc2nc(N)nc(N)c2n1)c1ccc(C(=O)N[C@@H](CCC(=O)O)C(=O)O)cc1 [Methothrexate, methotrexate] |  | reduced | reduced | 
3 | Remicade: positive control 1, administered intraperitoneally at 20 mg/kg |  | reduced | reduced | reduced
